Columns and labels:
[1] = Cytotoxicity against HEK293T cells assessed as reduction in cell viability measured after 48 hrs by MTT assay; type: toxicity, cell-based, HEK-293T; conditions: human
[2] = Half-life in rat whole blood at 500 ng/ml by LC-MS/MS analysis; type: ADME, tissue-based
[3] = Drug uptake in human skin fibroblast lysosomes assessed as fold change in corrected total cell fluorescence at 50 uM measured after 2 hrs by LysoTracker Red DND-99 dye based laser scanning confocal microscopy relative to control; type: ADME, subcellular, Lysosome

SMILES	CC50 at 48 h [1] [µM]	half-life at 500 ng/ml [2] [min]	fold change (FC) [3]
CN1CCN(CCCC(=O)O[C@H]2C(C)(C)[C@H]3CC[C@]2(C)C3)CC1	> 775		
CC1(C)[C@H]2CC[C@](C)(C2)[C@H]1OC(=O)CN1CCOCC1	291		
CN1CCN(CC(=O)O[C@H]2C(C)(C)[C@H]3CC[C@]2(C)C3)CC1	645		
CCN1CCN(CCC(=O)O[C@H]2C(C)(C)[C@H]3CC[C@]2(C)C3)CC1	356		
CC1(C)[C@H]2CC[C@](C)(C2)[C@H]1OC(=O)CCCN1CCCCC1	458		
CC1(C)[C@@H]2CC[C@@]1(C)[C@@H](OC(=O)CCN1CCCCC1)C2		20	
CN1CCN(CCC(=O)O[C@H]2C(C)(C)[C@H]3CC[C@]2(C)C3)CC1	454		0.33
C[C@@H]1[C@H]2C[C@@H](C[C@H]1OC(=O)CCN1CCN(c3ccccc3)CC1)C2(C)C	128		
C[C@@H]1[C@H]2C[C@@H](C[C@H]1OC(=O)CCCN1CCN(c3ccccc3)CC1)C2(C)C	67		
C[C@@H]1[C@H]2C[C@@H](C[C@H]1OC(=O)CCN1CCN(C)CC1)C2(C)C	318		
CCN1CCN(CCCC(=O)O[C@H]2C(C)(C)[C@H]3CC[C@]2(C)C3)CC1	404		
C[C@@H]1[C@H]2C[C@@H](C[C@H]1OC(=O)CN1CCN(C)CC1)C2(C)C	628		
C[C@@H]1[C@H]2C[C@@H](C[C@H]1OC(=O)CN1CCN(c3ccccc3)CC1)C2(C)C	59		
CC1CCN(CC(=O)O[C@H]2C(C)(C)[C@H]3CC[C@]2(C)C3)CC1	241		
CC1(C)[C@H]2CC[C@](C)(C2)[C@H]1OC(=O)CCCN1CCN(c2ccccc2)CC1	11		
CC1(C)[C@H]2CC[C@](C)(C2)[C@H]1OC(=O)CCN1CCN(c2ccccc2)CC1	21		

SMILES	CC50 at 48 h [1] [µM]	half-life at 500 ng/ml [2] [min]	fold change (FC) [3]
CCN1CCN(CC(=O)O[C@H]2C(C)(C)[C@H]3CC[C@]2(C)C3)CC1	907		
CC1(C)[C@H]2CC[C@](C)(C2)[C@H]1OC(=O)CN1CCCCC1	229		0.6
C[C@@H]1[C@H]2C[C@@H](C[C@H]1OC(=O)CCN1CCCCC1)C2(C)C	334		0.37
CC1CCN(CCC(=O)O[C@H]2C(C)(C)[C@H]3CC[C@]2(C)C3)CC1	188		
CC1(C)[C@H]2CC[C@](C)(C2)[C@H]1OC(=O)CCCN1CCOCC1	261		0.56
CC1(C)[C@H]2CC[C@](C)(C2)[C@H]1OC(=O)CCN1CCCCC1	351		0.3
CC1(C)[C@H]2CC[C@](C)(C2)[C@H]1OC(=O)CN1CCN(c2ccccc2)CC1	101		
C[C@@H]1[C@H]2C[C@@H](C[C@H]1OC(=O)CCCN1CCN(C)CC1)C2(C)C	164		
C[C@@H]1[C@H]2C[C@@H](C[C@H]1OC(=O)CN1CCOCC1)C2(C)C	199		0.56
C[C@@H]1[C@H]2C[C@@H](C[C@H]1OC(=O)CCCN1CCCCC1)C2(C)C	123		
C[C@@H]1[C@H]2C[C@@H](C[C@H]1OC(=O)CN1CCCCC1)C2(C)C	314		0.46
C[C@@H]1[C@H]2C[C@@H](C[C@H]1OC(=O)CCN1CCOCC1)C2(C)C	281		0.57
C[C@@H]1[C@H]2C[C@@H](C[C@H]1OC(=O)CCCN1CCOCC1)C2(C)C	116		
CC1(C)[C@H]2CC[C@](C)(C2)[C@H]1OC(=O)CCN1CCOCC1	318		
CC1CCN(CCCC(=O)O[C@H]2C(C)(C)[C@H]3CC[C@]2(C)C3)CC1	130		
CN(C)CCOc1ccc(/C(=C(/CCCl)c2ccccc2)c2ccccc2)cc1 [TOREMIFENE]	17		

Source: ChEMBL document CHEMBL5579834 (Eur J Med Chem, 2024)
